This test addresses T1, HDAC6 enzyme (Homo sapiens, UniProt Q9UBN7).
T1 construct: prepared by transducing full length HDAC1 and HDAC6 genes into Sf-9 insect cells; GST; purchased SignalChem; host or cells: Sf-9 insect cells
T1 sequence (Q9UBN7 1-1215): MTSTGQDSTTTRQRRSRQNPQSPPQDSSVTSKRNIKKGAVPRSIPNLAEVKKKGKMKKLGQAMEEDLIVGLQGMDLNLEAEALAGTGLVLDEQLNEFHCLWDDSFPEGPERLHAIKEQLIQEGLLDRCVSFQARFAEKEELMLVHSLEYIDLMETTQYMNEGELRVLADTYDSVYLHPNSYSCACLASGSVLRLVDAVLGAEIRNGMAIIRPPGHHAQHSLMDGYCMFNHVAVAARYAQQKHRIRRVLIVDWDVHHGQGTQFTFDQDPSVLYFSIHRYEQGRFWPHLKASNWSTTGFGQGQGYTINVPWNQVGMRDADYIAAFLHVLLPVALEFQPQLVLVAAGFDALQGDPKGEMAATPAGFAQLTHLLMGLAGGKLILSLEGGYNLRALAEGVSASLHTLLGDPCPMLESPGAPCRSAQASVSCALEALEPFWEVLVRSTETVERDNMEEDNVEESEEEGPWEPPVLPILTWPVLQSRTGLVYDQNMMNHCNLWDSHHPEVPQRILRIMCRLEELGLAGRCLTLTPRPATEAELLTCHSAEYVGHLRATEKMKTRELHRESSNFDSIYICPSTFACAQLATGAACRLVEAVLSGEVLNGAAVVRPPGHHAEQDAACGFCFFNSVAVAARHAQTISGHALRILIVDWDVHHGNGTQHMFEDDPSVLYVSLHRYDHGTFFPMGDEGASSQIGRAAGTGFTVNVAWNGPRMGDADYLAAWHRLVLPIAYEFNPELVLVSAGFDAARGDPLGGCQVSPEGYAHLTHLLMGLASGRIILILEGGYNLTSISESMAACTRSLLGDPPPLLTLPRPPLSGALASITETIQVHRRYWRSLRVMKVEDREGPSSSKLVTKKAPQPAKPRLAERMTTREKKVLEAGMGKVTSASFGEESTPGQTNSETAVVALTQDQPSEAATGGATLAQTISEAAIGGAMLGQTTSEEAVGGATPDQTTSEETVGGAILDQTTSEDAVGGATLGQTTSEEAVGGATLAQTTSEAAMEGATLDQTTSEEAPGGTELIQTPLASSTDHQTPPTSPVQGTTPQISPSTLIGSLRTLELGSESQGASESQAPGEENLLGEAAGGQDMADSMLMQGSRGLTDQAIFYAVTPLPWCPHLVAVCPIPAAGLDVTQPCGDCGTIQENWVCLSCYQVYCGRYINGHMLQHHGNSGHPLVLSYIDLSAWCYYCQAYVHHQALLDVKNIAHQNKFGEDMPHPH
In words: HDAC6 enzyme inhibitory assay (HDAC-Glo I/II Assay kit). Format: biochemical. Particulars: 1 μM test compound; read-out: HDAC6 inhibitory rate (%) (1 μM). In a few lines:
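Full-length GST-purified HDAC1 or HDAC6 (Sf-9 expressed) preincubated 60 min at room temperature with compound in Tris-HCl pH 7.5 buffer with glutathione and Tween-20. HDAC-Glo substrate-developer added, 20 min at room temperature, then luminescence read; inhibition relative to no-enzyme wells as 100%.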
Consider `Cc1ccsc1C(=O)N1CCOC[C@@H]1CNC(=O)c1ccc(-c2noc(C(F)(F)F)n2)cn1` [Example 198, N-(((3S)-4-((3-methyl-2-thienyl)carbonyl)morpholin-3-yl)methyl)-5-(5-(trifluoromethyl)-1,2,4-oxadiazol-3-yl)pyridine-2-carboxamide], for which the inhibition at 1 µM stood at 99%.
To `O=C(NC[C@H]1COCCN1C(=O)C1CCc2ccccc2O1)c1ccc(-c2noc(C(F)(F)F)n2)cn1` (stereo partly drawn) [Example 199, N-(((3S)-4-(3,4-dihydro-2H-chromen-2-ylcarbonyl)morpholin-3-yl)methyl)-5-(5-(trifluoromethyl)-1,2,4-oxadiazol-3-yl)pyridine-2-carboxamide] belongs 94%.
As for `O=C(NC[C@H]1COCCN1C(=O)c1cc2ccccc2o1)c1ccc(-c2noc(C(F)(F)F)n2)cn1` [Example 200, N-(((3S)-4-(1-benzofuran-2-ylcarbonyl)morpholin-3-yl)methyl)-5-(5-(trifluoromethyl)-1,2,4-oxadiazol-3-yl)pyridine-2-carboxamide], the inhibition at 1 µM stood at 91%.
To `O=C(NC[C@H]1COCCN1C(=O)Cc1cccs1)c1ccc(-c2noc(C(F)(F)F)n2)cn1` [Example 201, N-(((3S)-4-(2-thienylacetyl)morpholin-3-yl)methyl)-5-(5-(trifluoromethyl)-1,2,4-oxadiazol-3-yl)pyridine-2-carboxamide] belongs 95%; to `O=C(NC[C@H]1COCCN1C(=O)CCc1ccccc1)c1ccc(-c2noc(C(F)(F)F)n2)cn1` [Example 203, N-(((3S)-4-(3-phenylpropanoyl)morpholin-3-yl)methyl)-5-(5-(trifluoromethyl)-1,2,4-oxadiazol-3-yl)pyridine-2-carboxamide], 95%; to `O=C(NCC1COCCN1C(=O)c1cccc(F)c1)c1ccc(-c2noc(C(F)(F)F)n2)s1` (stereo not drawn) [Example 212, N-((4-(3-fluorobenzoyl)morpholin-3-yl)methyl)-5-(5-(trifluoromethyl)-1,2,4-oxadiazol-3-yl)thiophene-2-carboxamide], 97%.
Turning to `O=C(NCC1COCCN1C(=O)c1cc(F)cc(F)c1)c1ccc(-c2noc(C(F)(F)F)n2)s1` (stereo not drawn) [Example 213, N-((4-(3,5-difluorobenzoyl)morpholin-3-yl)methyl)-5-(5-(trifluoromethyl)-1,2,4-oxadiazol-3-yl)thiophene-2-carboxamide], the inhibition at 1 µM was found to be 95%.
With `O=C(NCC1COCCN1C(=O)c1ccccc1Cl)c1ccc(-c2noc(C(F)(F)F)n2)s1` (stereo not drawn) [Example 214, N-((4-(2-chlorobenzoyl)morpholin-3-yl)methyl)-5-(5-(trifluoromethyl)-1,2,4-oxadiazol-3-yl)thiophene-2-carboxamide], the inhibition at 1 µM was 96%.
As for `O=C(NCC1COCCN1C(=O)c1cccc(Cl)c1)c1ccc(-c2noc(C(F)(F)F)n2)s1` (stereo not drawn) [Example 215, N-((4-(3-chlorobenzoyl)morpholin-3-yl)methyl)-5-(5-(trifluoromethyl)-1,2,4-oxadiazol-3-yl)thiophene-2-carboxamide], the inhibition at 1 µM is 94%.
For the molecule `O=C(NCC1COCCN1C(=O)c1ccc(Cl)cc1)c1ccc(-c2noc(C(F)(F)F)n2)s1` (stereo not drawn) [Example 216, N-((4-(4-chlorobenzoyl)morpholin-3-yl)methyl)-5-(5-(trifluoromethyl)-1,2,4-oxadiazol-3-yl)thiophene-2-carboxamide], the inhibition at 1 µM was 93%.
Under `N#Cc1ccccc1C(=O)N1CCOCC1CNC(=O)c1ccc(-c2noc(C(F)(F)F)n2)s1` (stereo not drawn) [Example 217, N-((4-(2-cyanobenzoyl)morpholin-3-yl)methyl)-5-(5-(trifluoromethyl)-1,2,4-oxadiazol-3-yl)thiophene-2-carboxamide] stands 94%; under `N#Cc1cccc(C(=O)N2CCOCC2CNC(=O)c2ccc(-c3noc(C(F)(F)F)n3)s2)c1` (stereo not drawn) [Example 218, N-((4-(3-cyanobenzoyl)morpholin-3-yl)methyl)-5-(5-(trifluoromethyl)-1,2,4-oxadiazol-3-yl)thiophene-2-carboxamide], 91%.

These data come from patent US10081624B2, “Heterocyclic compound” (Takeda Pharmaceutical Company Limited, priority 2014, dated 2018).
